In general, melting point refers to the temperature, or range, at which the solid turns liquid.

In the case of `CC(=O)Nc1c(N(C)C)cnn(-c2ccccc2)c1=O`, the melting point was in the range of 186 to 187 °C.
On to `O=C(O)C1CCc2c(oc3cccc(Cl)c23)C1` (stereo not given), for which the melting point was 189 to 190 °C.
For `CC1=CC(=O)CC2CCC3C4C(C#N)CC(=O)C4(C)CCC3C12C` (stereo not given) the value was 193 °C; for `CCOCc1ccc(CN(O)C(N)=O)o1`, 80.5 °C.
`COC(=O)C(Cl)(Cl)Cc1c(Cl)cc(Cl)cc1Cl` registered a melting point of 56 to 57 °C.
Consider `Nc1nc(Oc2ccccc2)nc2nc(-c3ccco3)nn12`, for which the melting point is 250 to 252 °C.
With `CC(=Cc1ccc2cc[nH]c2c1)C(=O)O` the figure was 188 to 190 °C.
For `COC(=O)c1ccc2cc(S)ccc2c1` the value was 150 to 151 °C; for `CCCCCCCC[C@H](N[C@@H](C)C(=O)O)C(=O)OCC`, 127 to 128 °C; for `CC1=CC(OC(=O)C=Cc2ccc(O)cc2)C(O)C(C)(C)CC1=O` (stereo not given), 176 to 177 °C.
`O=C1NC(=O)C(Cc2ccc(OCC3CCN(C(=O)OCc4ccccc4)CC3)cc2)S1` (stereo not given) returned a melting point of 54 to 56 °C.
Molecule `COc1ccc(CN(C)CCCSc2ccc(NC(=O)c3cccc4c(=O)c5cccc(SC)c5[nH]c34)cc2)cc1OC` gave a melting point of 142 °C.
Molecule `CNc1cc(CC(C#N)=CNc2ccccc2)cc(N(C)C)c1Cl` showed a melting point of 173 to 174 °C.
With `Cc1cc2c(cc1C1=NNC(=O)CC1)NC(=O)CO2`, the melting point was in the range of 255 to 257 °C.
Molecule `O=C(NCc1ccccc1)c1csc(-n2ccc(OCc3ccccc3)cc2=O)c1` gave a melting point of 162 to 163 °C.
Take `COC(=O)c1cc(OCCCCCCCCCCCCOc2ccccc2)ccc1OCc1ccccc1`: the melting point lay within 46 to 48 °C.
Molecule `CC(C)c1nc(-n2cnc3ccccc32)sc1/C=C/C(=O)O` yielded a melting point of 262 to 264 °C.
Molecule `O=C(Cc1ccccc1)N1CCCSC1=C[N+](=O)[O-]` yielded a melting point of 121 to 122 °C.
For `CNC(=O)Nc1ccccc1` the value was 149 to 150 °C; for `CCCCCCCCCCCCC#CCC(NC(C)=O)(C(=O)OCC)C(=O)OCC`, 43 to 43.5 °C; for `CCOC(=O)COc1cc(OCC(=O)OCC)c2c(C)c(Cc3ccccc3)c(=O)n(Cc3ccccc3)c2c1`, 113 to 116 °C.
Take `COc1cccc2c(=O)c3c(O)cc(OCC(O)CO)cc3oc12` (stereo not given): the melting point came out at 189 °C.
With `COc1ccc(COCCC(C(=O)O)c2ccccc2)cc1` (stereo not given) the figure was 114 to 115 °C; with `c1ccc(COc2ccc(-c3cocn3)cc2)cc1`, 101 to 102 °C.
For `CC(c1cc(Cl)ccc1N1CCCCC1C)C(C(N)=O)c1ccc(C(=O)O)cc1` (stereo not given) the value was 195 to 198 °C.
Turning to `N#CCOc1ccc(Cl)cc1-n1nncc1-c1cccc(C(F)(F)F)c1`, the melting point lay within 145 to 146 °C.
For `CC(C)(C)[Si](C)(C)N1C(=O)C(C(Cc2ccccc2)OC=O)C1SC(c1ccccc1)(c1ccccc1)c1ccccc1` (stereo not given) the value was 172 to 173 °C; for `CC1(C)CCC(C)(C)c2cc(-c3cc(-c4ccc(C(=O)O)cc4)ccc3OCCN3CCOCC3)ccc21`, 270 to 272 °C; for `COC(=O)CCCC#CCC1C(=O)CCCC1=O`, 108 to 110 °C.
With `O=C1C(Br)CCN1c1cc(C(F)(F)F)ccn1` (stereo not given) the figure was 43 to 47 °C; with `O=C(O)c1ccc2c(c1)S(=O)(=O)N=C(n1ccnc1)N2`, more than 300 °C; with `O=C(O)CCc1cc2cc(Cl)ccc2n1S(=O)(=O)c1ccc2ccccc2c1`, 160 °C.
Take `CNC(=O)c1c(Cl)ccc(Cl)c1OC`: the melting point lay in the range of 172 to 175 °C.
Regarding `Cc1c(C(=O)O)nn(-c2ccc(Cl)cc2Cl)c1-c1ccc(Cl)cc1`, the melting point came to 211 °C.
With `COc1cc(N)c(Cl)cc1C(=O)NCC1(OC)CCN(CCCCCC(=O)c2ccccc2)CC1` the figure was 91 to 93 °C; with `CCN1C(=O)CN(c2ccccc2)C1=S`, 122 °C; with `O=C(c1ccc(-n2ccc(C(F)(F)F)n2)cc1)N1Cc2cccn2Cc2ccccc21`, 166 to 167 °C.
Consider `O=C(O)c1ccc(-c2nc3ccccc3s2)cc1`, for which the melting point was in the range of 294 to 296 °C.
With `Cc1ccc(C(C#N)C=Cc2ccc(O)c(O)c2)cc1` (stereo not given) the figure was 172 °C.
With `Oc1ccc(Cl)cc1C(c1cc(Cl)ccc1O)C(F)(F)F` the figure was 144 °C.
The molecule `CCn1c(N)c(C(N)=O)c(=O)c2cnc(Nc3cccc(N4CCOCC4)c3)nc21` registered a melting point of 195 °C.
For `CCOC(=O)CC(c1ccccc1)c1ccc(NC(=O)NCCCl)cc1` (stereo not given) the value was 109 to 111 °C; for `Oc1ccccc1Cc1cccc2[nH]ccc12`, 139 °C; for `C=C(Cl)COc1ccc(Br)cc1CN(CC)c1ccc(C(=O)O)cn1`, 207 to 209 °C.
For `C=C(C(=O)OCC)c1cc(-c2cc3c(cc2C)C(C)(C)CCC3(C)C)ccc1OCOC`, the melting point lay within 100 to 101 °C.
For `CCC(=O)C(O)(Cc1ccc(Cl)cc1Cl)c1cccnc1` (stereo not given) the value was 145 to 146 °C.
Take `CC(C)COC(=O)C1(c2onc(-c3ccc(O)cc3)c2-c2ccccc2)CC1`: the melting point lay in the range of 109 to 110 °C.
`Cc1cc(Cl)cc(C(=O)Nc2ccc(F)cn2)n1`: the melting point was found to be 156 °C.
For `Oc1nc2ccccc2n2c(C(F)(F)F)nnc12` the value was more than 300 °C; for `CC(=O)OC1CSC(Oc2ccc3sc(C)nc3c2)C(OC(C)=O)C1OC(C)=O` (stereo not given), 158 °C; for `O=C(O)CCC(=NOCc1ccc(OCc2ccc3ccccc3n2)cc1)c1ccccc1`, 133 to 134 °C.
For `Cc1cccc(NC(=O)c2cc(C#N)cc(C)n2)n1`, the melting point is 244 °C.
Regarding `Cn1nc(-c2ccccc2)cc1C(=O)Nc1ccc(OCC(C)(C)C)c(C#N)c1`, the melting point lay within 223 to 224 °C.
Molecule `N#CC1=C(c2ccc(Cl)cc2)NC(C(F)(F)F)C1` (stereo not given) showed a melting point of 158 to 160 °C.
On to `CC1(C)C=Cc2cc(C(=O)NCCc3ccc(OCc4ccccc4)cc3)ccc2O1`, for which the melting point lay in the range of 133 to 135 °C.
`CN1CCN(c2ccc(-c3cnc4c(c3)N(Cc3cc(F)ccc3F)CCN4)cn2)CC1` gave a melting point of 192 to 193 °C.
`O=CC=C[C@@H]1O[C@H]1C#CC#CC#Cc1ccccc1` (relative stereo) displayed a melting point of 91 to 92.5 °C.
With `O=S(=O)(N[C@H](CO)c1ccccc1)c1ccc(Cl)cc1` the figure was 127 to 128 °C.
In turn, `CCOc1ccc(-c2nc(O)c(-c3ccccc3)s2)cc1` gave a melting point of 214 to 216 °C.
For `COC(=O)c1cccc(Nc2nccc(-c3ccnc(NCCCO)c3)n2)c1` the value was 162 to 163 °C; for `Cc1nnc(Cc2ccc(NC(=O)/C=C/c3cnn(C)c3-c3ccc(F)cc3)cc2)o1`, 151 to 152 °C; for `CS(=O)(=O)c1ccc(-c2cnn(-c3ccc(C(F)(F)F)cc3)c(=O)c2-c2ccc(F)cc2)cc1`, 171 to 173 °C.
With `COc1cc(C(=O)O)ccc1Cc1c(Cl)n(C)c2ccc(CCNC(=O)N(C)C)cc12` the figure was 215 °C; with `CC1(O)CCC2(C)C(CCC3C2CCC2(C)C3CCC2[N+](=O)[O-])C1` (stereo not given), 211 to 213 °C; with `CON=Cc1cnnc2ccccc12`, 83 to 85 °C.
With `CNC1CCN(c2c(F)cc3c(=O)c(C(=O)O)cn(C4COC4)c3c2F)C1` (stereo not given) the figure was 252 to 255 °C; with `Nc1ccc2c(=O)[nH]c(=O)n(CCCCN3CCC(OC(c4ccccc4)c4ccccc4)CC3)c2c1`, 162 to 164 °C.
The molecule `O=C(O)CC1CCOc2ccc(Cl)cc21` (stereo not given) registered a melting point of 115 to 117 °C.
For `COP(=O)(Cc1c2ccccc2cc2ccccc12)OC` the value was 152 to 153 °C; for `CC(C)(C)c1cc(SCCc2nnc(N)o2)cc(C(C)(C)C)c1O`, 172 to 174 °C; for `CC1=C(C(=O)OC(C)(C)C)C(c2cccc(Cl)c2Cl)C(C(=O)OC(C)(C)C)=C(C)N1`, 144 to 145 °C.
`N[C@@H](C1CCCCC1)C(O)(Cc1ccccc1)Cc1ccccc1` displayed a melting point of 80 to 81 °C.
With `CCOC(=O)N1CCC(Nc2nc3cncnc3n2Cc2ccccc2)CC1` the figure was 157 °C; with `CCCC(=O)c1c(O)oc(=O)c(C(=O)CCC)c1O`, 80 to 82 °C.
`COc1nc2cc([N+](=O)[O-])cc(Br)c2nc1OC`: the melting point fell in the range of 171 to 175 °C.
For `Cc1noc(NS(=O)(=O)c2ccsc2C(=O)N(C)c2ccccc2)c1Br` the value was 51 to 55 °C; for `O=C(O)C1Cc2cc3c(-c4ccccc4Cl)noc3c(Cl)c2O1` (stereo not given), 224 to 225 °C.
For `O=C(CCN1CCN(c2ccc(F)cc2)CC1)c1cnn2c1CCCC2` the value was 141 to 142 °C; for `CCOC(=O)C1(C(=O)OCC)CCC2(c3cc(OC)c(OC)cc3CCN2C(C)=O)C(C2c3cc(OC)c(OC)cc3CCN2CC)C1` (stereo not given), 142 to 144 °C.
As to `CC(C)c1ccc(C(=O)C2=C(O)C(=O)N(c3cccn(C)c3=O)C2c2ccc(OC(F)(F)F)cc2)cc1` (stereo not given), the melting point worked out at 207 °C.
On to `Cc1ccc2ccc3c(c2c1)C(C)(C)C(=O)O3`, for which the melting point is 88 to 89 °C.
For `Cn1ncc2c1-c1c(Oc3ccc(OCc4ccc5ccccc5n4)cc3)sc(C(=O)O)c1CC2` the value was 214 to 215 °C; for `CC(=O)Oc1ccc2c(c1)CCC1C2CCC2(C)C1CC(O)C2N(C)C` (stereo not given), 173 to 175 °C.
The molecule `CCCc1c[nH]c([C@@H]2Cc3ccccc3N2C(C)=O)n1` yielded a melting point of 174 to 175 °C.
As for `COc1cc(OC)nc(Oc2ccc(N(C)C)nc2C(=O)O)n1`, the melting point fell in the range of 195 to 198 °C.
For the molecule `Cc1c(OC(=O)C(C)(C)C)c(=O)ccn1C`, the melting point was in the range of 112 to 113 °C.
For `CCCCCS(=O)(=O)NC(=O)CCc1ccc(OCC(=O)N(CC)CC)cc1Oc1ncc(C(F)(F)F)cc1Cl` the value was 111 to 113 °C.
With `CCCc1cc(OC)ccc1-c1noc2cc(OC)ccc12` the figure was 71 to 72 °C; with `Cc1ccc(-c2nc3n(n2)Cc2ccccc2-3)cc1`, 207 to 208 °C; with `CCCCC(Cn1cncn1)(C(N)=O)c1ccc(Cl)cc1Cl` (stereo not given), 170 to 172 °C.
